Measurements taken from publication PMC4076210, “Discovery of Novel AKT Inhibitors with Enhanced Anti-Tumor Effects in Combination with the MEK Inhibitor” (PLoS ONE, 2014).
Where two headings read alike, the source gives them in different places.

Experiments:
Type in all cases: biochemical
CDK7/cyclinH/MAT1(h) = target: T1, CDK7/cyclinH/MAT1(h) (Homo sapiens, UniProt P50613); experiment: Kinase panel
T1 construct: purchased Millipore KinaseProfiler

IKKβ(h) = target: T2, IKKβ(h) (Homo sapiens, UniProt O14920); experiment: Kinase panel
T2 construct: purchased Millipore KinaseProfiler
T2 sequence (O14920 1-756): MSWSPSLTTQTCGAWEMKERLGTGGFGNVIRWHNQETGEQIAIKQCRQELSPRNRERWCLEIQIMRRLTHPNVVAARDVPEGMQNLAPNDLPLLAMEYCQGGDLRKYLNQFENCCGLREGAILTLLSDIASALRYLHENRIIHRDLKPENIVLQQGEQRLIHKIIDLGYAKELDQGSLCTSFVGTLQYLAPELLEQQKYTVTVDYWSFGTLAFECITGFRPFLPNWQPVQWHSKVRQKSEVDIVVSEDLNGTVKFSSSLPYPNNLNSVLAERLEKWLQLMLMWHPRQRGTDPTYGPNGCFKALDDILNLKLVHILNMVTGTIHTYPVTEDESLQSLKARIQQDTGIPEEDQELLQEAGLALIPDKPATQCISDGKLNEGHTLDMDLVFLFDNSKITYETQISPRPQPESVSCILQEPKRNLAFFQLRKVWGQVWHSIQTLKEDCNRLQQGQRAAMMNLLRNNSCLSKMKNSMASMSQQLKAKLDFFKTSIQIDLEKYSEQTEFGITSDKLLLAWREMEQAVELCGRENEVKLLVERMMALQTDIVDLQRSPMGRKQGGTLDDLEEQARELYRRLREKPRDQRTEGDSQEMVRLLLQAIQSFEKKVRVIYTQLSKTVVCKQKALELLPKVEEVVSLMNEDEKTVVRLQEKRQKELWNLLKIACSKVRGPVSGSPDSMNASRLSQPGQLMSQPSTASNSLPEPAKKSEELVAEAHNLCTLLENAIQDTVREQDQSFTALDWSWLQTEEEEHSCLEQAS

MARK1(h) = target: T3, MARK1(h) (Homo sapiens, UniProt Q9P0L2); experiment: Kinase panel
T3 construct: purchased Millipore KinaseProfiler

ULK2(h) = target: T4, ULK2(h) (Homo sapiens, UniProt Q8IYT8); experiment: Kinase panel
T4 construct: purchased Millipore KinaseProfiler
T4 sequence (Q8IYT8 1-1036): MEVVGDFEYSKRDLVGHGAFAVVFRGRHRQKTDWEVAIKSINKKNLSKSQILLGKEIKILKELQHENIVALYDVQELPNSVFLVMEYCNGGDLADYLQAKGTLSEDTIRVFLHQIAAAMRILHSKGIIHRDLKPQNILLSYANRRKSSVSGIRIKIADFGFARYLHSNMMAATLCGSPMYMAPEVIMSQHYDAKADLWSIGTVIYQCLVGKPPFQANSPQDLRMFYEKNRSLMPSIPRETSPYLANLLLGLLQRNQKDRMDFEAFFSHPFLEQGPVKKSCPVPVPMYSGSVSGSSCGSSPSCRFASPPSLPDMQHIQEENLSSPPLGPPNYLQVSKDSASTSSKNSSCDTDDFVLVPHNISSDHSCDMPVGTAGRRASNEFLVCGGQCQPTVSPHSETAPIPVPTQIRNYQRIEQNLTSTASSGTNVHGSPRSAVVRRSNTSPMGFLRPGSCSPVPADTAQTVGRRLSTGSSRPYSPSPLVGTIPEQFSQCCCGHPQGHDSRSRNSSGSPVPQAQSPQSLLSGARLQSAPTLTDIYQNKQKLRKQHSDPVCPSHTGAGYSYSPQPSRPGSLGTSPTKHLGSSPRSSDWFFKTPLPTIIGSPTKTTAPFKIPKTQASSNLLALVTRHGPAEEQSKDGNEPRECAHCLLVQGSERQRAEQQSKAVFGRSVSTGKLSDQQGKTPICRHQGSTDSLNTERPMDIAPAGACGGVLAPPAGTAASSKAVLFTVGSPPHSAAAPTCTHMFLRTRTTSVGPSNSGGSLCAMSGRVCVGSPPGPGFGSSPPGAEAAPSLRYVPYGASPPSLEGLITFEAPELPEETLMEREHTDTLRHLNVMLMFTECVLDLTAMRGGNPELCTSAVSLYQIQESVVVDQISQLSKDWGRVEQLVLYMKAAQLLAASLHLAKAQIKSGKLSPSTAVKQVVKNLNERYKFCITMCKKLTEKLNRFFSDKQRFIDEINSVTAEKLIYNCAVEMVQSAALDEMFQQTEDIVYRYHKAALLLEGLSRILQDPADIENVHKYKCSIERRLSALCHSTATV

ROCK = experiment: Kinase IC50 assay

T1 sequence (P50613 whole entry): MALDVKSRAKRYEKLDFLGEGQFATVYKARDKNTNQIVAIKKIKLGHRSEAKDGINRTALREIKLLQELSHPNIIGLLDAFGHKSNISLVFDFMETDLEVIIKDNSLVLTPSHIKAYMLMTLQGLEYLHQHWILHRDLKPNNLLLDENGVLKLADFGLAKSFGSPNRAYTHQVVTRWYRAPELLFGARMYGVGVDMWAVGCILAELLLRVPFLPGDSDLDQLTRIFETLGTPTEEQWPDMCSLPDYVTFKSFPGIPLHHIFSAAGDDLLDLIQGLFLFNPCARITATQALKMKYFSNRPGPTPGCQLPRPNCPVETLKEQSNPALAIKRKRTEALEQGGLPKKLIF
T1 sequence (P51946 whole entry partner): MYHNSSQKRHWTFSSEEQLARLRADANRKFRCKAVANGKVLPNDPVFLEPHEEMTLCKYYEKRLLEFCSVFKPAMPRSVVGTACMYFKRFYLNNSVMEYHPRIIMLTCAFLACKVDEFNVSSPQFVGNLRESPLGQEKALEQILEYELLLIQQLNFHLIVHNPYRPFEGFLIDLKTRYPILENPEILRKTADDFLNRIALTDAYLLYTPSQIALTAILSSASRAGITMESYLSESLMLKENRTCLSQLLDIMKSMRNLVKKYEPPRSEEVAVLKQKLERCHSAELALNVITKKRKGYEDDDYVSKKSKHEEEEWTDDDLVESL
T1 sequence (P51948 whole entry partner): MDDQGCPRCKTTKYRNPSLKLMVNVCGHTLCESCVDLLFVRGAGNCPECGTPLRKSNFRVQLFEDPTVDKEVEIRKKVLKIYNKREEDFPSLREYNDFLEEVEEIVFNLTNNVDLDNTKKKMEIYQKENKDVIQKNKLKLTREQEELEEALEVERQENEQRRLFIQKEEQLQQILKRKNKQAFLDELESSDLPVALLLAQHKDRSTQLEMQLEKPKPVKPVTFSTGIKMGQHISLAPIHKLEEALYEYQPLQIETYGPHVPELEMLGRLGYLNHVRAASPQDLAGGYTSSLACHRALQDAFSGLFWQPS
T3 sequence (Q9P0L2 whole entry): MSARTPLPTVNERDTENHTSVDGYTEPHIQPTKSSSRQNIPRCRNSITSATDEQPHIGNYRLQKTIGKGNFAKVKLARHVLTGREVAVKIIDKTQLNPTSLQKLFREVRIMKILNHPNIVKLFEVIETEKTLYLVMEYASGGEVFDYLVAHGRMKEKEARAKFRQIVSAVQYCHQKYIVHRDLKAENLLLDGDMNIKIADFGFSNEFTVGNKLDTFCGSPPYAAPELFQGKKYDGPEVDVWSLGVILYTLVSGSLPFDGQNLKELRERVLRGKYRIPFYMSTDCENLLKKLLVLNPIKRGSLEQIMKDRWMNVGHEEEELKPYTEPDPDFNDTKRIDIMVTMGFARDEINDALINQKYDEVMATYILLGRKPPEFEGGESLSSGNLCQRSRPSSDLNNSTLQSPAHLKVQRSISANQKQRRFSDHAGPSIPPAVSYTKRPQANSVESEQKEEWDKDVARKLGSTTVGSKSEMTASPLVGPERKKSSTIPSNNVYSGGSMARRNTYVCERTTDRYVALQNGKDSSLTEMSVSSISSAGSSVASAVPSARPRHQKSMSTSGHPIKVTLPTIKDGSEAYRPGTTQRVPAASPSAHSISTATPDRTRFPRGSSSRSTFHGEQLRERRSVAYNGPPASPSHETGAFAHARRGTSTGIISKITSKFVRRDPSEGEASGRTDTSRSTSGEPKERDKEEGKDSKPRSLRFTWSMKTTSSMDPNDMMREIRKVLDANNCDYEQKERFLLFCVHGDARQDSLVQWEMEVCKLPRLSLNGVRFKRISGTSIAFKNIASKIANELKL

Q: Which inhibition at 0.5 µM (CDK7/cyclinH/MAT1(h)) does the source give for `Cn1ncc(Cl)c1-c1cc(C(=O)N[C@H](CN)Cc2cccc(F)c2)sc1Cl` [GSK2110183] here?
A: 62%

Q: What about the inhibition at 10 µM (CDK7/cyclinH/MAT1(h)) of the same molecule?
A: 96%

Q: What about the inhibition at 0.5 µM (IKKβ(h)) of the same molecule?
A: 5%

Q: And the inhibition at 10 µM (IKKβ(h))?
A: 18%

Q: And the inhibition at 0.5 µM (MARK1(h))?
A: 26%

Q: What about the inhibition at 10 µM (MARK1(h)) of the same molecule?
A: 88%

Q: And the inhibition at 0.5 µM (ULK2(h))?
A: 0%

Q: And the inhibition at 10 µM (ULK2(h))?
A: 15%

Q: What about the IC50 (ROCK) of the same molecule?
A: 100 nM

Q: What does the source list for `Cn1ncc(Cl)c1-c1cc(C(=O)N[C@H](CN)Cc2ccc(F)c(F)c2)oc1Cl` [GSK2141795]?
A: inhibition at 0.5 µM (CDK7/cyclinH/MAT1(h); 0.5 µM, read-out: % Inhibition): 64%; inhibition at 10 µM (CDK7/cyclinH/MAT1(h); 10 µM, read-out: % Inhibition): 101%; inhibition at 0.5 µM (IKKβ(h); 0.5 µM, read-out: % Inhibition): -2%; inhibition at 10 µM (IKKβ(h); 10 µM, read-out: % Inhibition): 13%; inhibition at 0.5 µM (MARK1(h); 0.5 µM, read-out: % Inhibition): -11%; inhibition at 10 µM (MARK1(h); 10 µM, read-out: % Inhibition): 53%; inhibition at 0.5 µM (ULK2(h); 0.5 µM, read-out: % Inhibition): 6%; inhibition at 10 µM (ULK2(h); 10 µM, read-out: % Inhibition): 26%; IC50 (ROCK): 126 nM
